Results from paper PMC7555839 (Frontiers in Microbiology, 2020).
Read-outs that look alike come from different tables or passages of the source.

Key:
[1] = tested on: Staphylococcus aureus USA300 JE2; test: Broth microdilution (MIC/MBC); type: cell-based; conditions: USA300 JE2, human clinical isolate
S. aureus ATCC BAA-1556 = test: Broth microdilution (MIC/MBC); type: cell-based; conditions: Staphylococcus aureus, ATCCBAA1556; ATCC BAA-1556, human clinical isolate
[2] = tested on: Cutibacterium acnes P10140156 (in house strain); test: Broth microdilution (MIC/MBC), anaerobic; type: cell-based
[3] = tested on: eight Gram-positive pathogenic bacteria; test: Broth microdilution, summary over Gram-positive isolates; type: cell-based
S. aureus ATCC-BAA = test: Agar dilution MIC; type: cell-based; conditions: Staphylococcus aureus, MHA plates
Procedure: (§1) Initially, MHA plates with JBC 1847 concentrations ranging from 0.5 to 8 mg/L were made and bacterial inoculum was prepared as previously described, was added to each plate. […] The MIC values for the two S. aureus strains were both determined to 4 mg/L and therefore, TSA plates with a JBC 1847 concentration of 2 mg/L were prepared to ensure the strains were able to grow. One dish of each type of antibiotic was added to a single TSA plate with JBC 1847 and a control plate containing only TSA and inoculated as previously described. Two plates containing only 2 mg/L JBC 1847 and bacterial inoculum for each strain served as a positive control. After incubation, clearing zones were measured and compared between control and JBC 1847 plates.

S. aureus USA300 JE2 [4] = test: Agar dilution MIC; type: cell-based; conditions: Staphylococcus aureus, MHA plates
Procedure: as §1

S. aureus USA300 JE2 [5] = test: Growth and viability assay; type: cell-based, Staphylococcus aureus; conditions: for Bacterial concentration after 24 h: 0.5 × MIC
Procedure: Growth and viability assays were performed according to a previously published method ([Thorsing et al., 2013]), with some modifications. In general, the assay was conducted over a 24 h period in a 37°C heating bath with shaking, using S. aureus USA300 JE2 as test strain. […] The culture was diluted 1:100 in BHI broth and grown to early exponential phase (OD600 0.20). […] This culture was grown to OD600 0.20 where sample zero was collected. […] 100 μl samples were serially diluted, spread on MHA plates, and incubated at 37°C for 20–24 h followed by successive counting.
Data were statically analyzed and visualized using RStudio v3.6.3 ([R Core Team, 2020]) and Microsoft excel. In general, the values reflecting the bacterial concentration (CFU/ml) were transformed into a logarithmic scale. In the growth and viability assay, the mean numbers of the bacterial concentrations from the triplicates were plotted against time and standard deviations shown as error bars. To investigate differences in bacterial concentration between treatment groups in the in vivo assay, multiple group comparisons were performed using ANOVA and P < 0.05 considered significant. The data was visualized in a standard box plot.

MRSA USA300 = test: Transmission electron microscopy; type: cell-based, Staphylococcus aureus; conditions: concentration corresponding to the MIC, 1 h, vs untreated control
Procedure: To elucidate the interaction between JBC 1847 and MRSA USA300, transmission electron microscopy (TEM) was carried out. Bacterial cultures were inoculated in 10 ml MHB and cultivated at 37°C for 5 h, with shaking, until mid-exponential growth phase ([…]). […] An untreated control was also prepared. The five samples were placed on ice until being prepared for TEM. This included a fixation step in 2% glutaraldehyde in 0.15 M sodium phosphate buffer (pH 7.2). Subsequently, the fixed cells were washed three times and postfixed with 0.2% OsO4 (osmium tetroxide) in H2O/0.15 M sodium phosphate buffer (pH 7.2) for 1 h. The samples were then dehydrated with graded acetone, and then embedded in epoxy resin. Ultrathin sections of the samples were prepared using Formvar-coated copper grids, which were stained using 3% uranyl acetate. The samples were placed in a Philips CM 100 Transmission EM (Philips, Eindhoven, Netherlands) and exposed to 120 keV electron energy.

[6] = tested on: five bacterial tester strains; test: Ames test, overall evaluation (five tester strains); type: cell-based; conditions: in general
Source text: In this reverse mutation assay, five bacterial tester strains recommended by The Organization for Economic Cooperation and Development (OECD), were exposed to JBC 1847 in presence and absence of a metabolic activation system (S9) obtained from rat liver extract ([Maron and Ames, 1983]; [Levy et al., 2019]). The characteristics of the four Salmonella typhimurium mutants (TA98, TA100, TA1535, TA1537) and a single Escherichia coli mutant [wp2 (pKM101)] have been described by [Mortelmans and Zeiger (2000)] and [Levy et al. (2019)]. Prior to testing, the genotypes of all strains were confirmed as previously described ([Mortelmans and Zeiger, 2000]), and JBC 1847 was tested in various concentrations (1.5, 4, 10, 25, 64, 160, 400, and 1,000 μg/well) whereas DMSO served as negative control. As positive controls, five mutagenic compounds were applied in various concentrations (Supplementary Material). The Ames test was performed as described in Supplementary Material where acceptance criteria for the test results can also be found. To evaluate the test results, the mutagenicity ratio (MR) was calculated and interpreted as in previous studies ([Pah and Lakhani, 2012]; [Wang et al., 2018]). The MR was calculated as MR = x/xn. Here, x was the number of reverse mutated colonies exposed to JCB 1847 whereas xn was the number of reverse mutated colonies in the negative controls. […]

[7] = tested on: Salmonella typhimurium TA1535
S. aureus USA300 = test: Induced tolerance assay (23 days); conditions: for MIC: Staphylococcus aureus

CC(C)=CCCC(C)CC[N+](C)(C)CCCN1c2ccccc2Sc2ccccc21 (stereo not drawn) [JBC 1847]
MBC [1]: 0.5 µg/mL | MIC ([1]; read-out: MIC): 0.5 µg/mL | MBC (S. aureus ATCC BAA-1556): 0.5 µg/mL | MIC (S. aureus ATCC BAA-1556): 0.5 µg/mL | MBC ([2]; BHI agar with 1% L-cystein): 0.5 to 1 µg/mL | MIC ([2]; BHI with 1% L-cysteine): 0.5 to 1 µg/mL | MIC values (range over isolates) [3]: 0.5 to 2 µg/mL | MIC (S. aureus ATCC-BAA): 4 µg/mL | MIC (S. aureus USA300 JE2 [4]): 4 µg/mL | Bacterial concentration after 24 h (S. aureus USA300 JE2 [5]; trial 1): approximately 10^3 CFU/ml | Bacterial concentration after 24 h (S. aureus USA300 JE2 [5]; trial 2): 0 CFU/ml | Bacterial concentration after 24 h (S. aureus USA300 JE2 [5]; trial 3, increase after 6 h): reached the same level as the control curve | Viable bacterial cells after 30 min (S. aureus USA300 JE2 [5]; 4 × MIC, all three replicates): no viable bacterial cells | Bacterial count after 24 h (S. aureus USA300 JE2 [5]; MIC concentration, trial 3): approximately 10^3 CFU/ml | Bacterial concentration at 24 h (S. aureus USA300 JE2 [5]; MIC concentration, trials 1 and 2): 0 CFU/ml | MIC (S. aureus USA300 JE2 [5]; Staphylococcus aureus, USA300, 100 ml BHI broth flasks, culture at OD600 0.20, 37°C shaking 20–22 h, read-out: MIC (visually determined)): 4 µg/mL | TEM appearance of bacterial cells (MRSA USA300): clearly lysed and the plasma membrane destroyed | Mutagenicity ratio (MR) ([6]; all strains, MR ≥ 2 interpreted as positive): < 2 | Ames test result ([6]; presence and absence of S9): non-mutagenic | Mean number of reverse mutated colonies ([7]; TA1535, + S9, 1.5 μg/well): 24.33 ± 3.21 | Mean number of reverse mutated colonies ([7]; TA1535, + S9, 4 μg/well): 26.67 ± 2.08 | Mean number of reverse mutated colonies ([7]; TA1535, + S9, 10 μg/well): 18.00 ± 5.57 | Mean number of reverse mutated colonies ([7]; TA1535, + S9, 64 μg/well): 0.0 | Mean number of reverse mutated colonies ([7]; TA1535, −S9, 1.5 μg/well): 24.33 ± 3.21 | Mean number of reverse mutated colonies ([7]; TA1535, −S9, 4 μg/well): 26.67 ± 2.08 | Mean number of reverse mutated colonies ([7]; TA1535, −S9, 10 μg/well): 18.00 ± 5.57 | Mean number of reverse mutated colonies ([7]; TA1535, −S9, 25 μg/well): 0.0 | Mean number of reverse mutated colonies ([7]; TA1535, −S9, 64 μg/well): 0.0 | MIC (S. aureus USA300; USA300, 24 h, read-out: MIC Day 1): 0.5 µg/mL | MIC (S. aureus USA300; USA300, 96 h, read-out: Highest MIC): 3.5 µg/mL | MIC (S. aureus USA300; USA300, 96 h, read-out: MIC values after day 4): 1 to 2.5 µg/mL | MIC (S. aureus USA300; USA300, 552 h, read-out: MIC Day 23): 3.5 µg/mL | Increase in MIC (S. aureus USA300; tolerance assay, during the 23 days): 7 fold
